Where “and” joins values, the source holds several entries; their conditions need not be identical. Identical values can stand only once. Toxic doses and inconclusive results are not listed. Rule for the calls: active = survival T/C of 150% or more; inactive = T/C below 125% in these data.
System: P388 leukemia ip, CD2F1 mice, survival T/C
Assay: NCI In Vivo Anticancer Drug Screen. Data for tumor model P388 Leukemia (intraperitoneal) in CD2F1 (CDF1) mice
Conditions: endpoint: median survival time, higher = longer survival
Outline: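 Mice carrying the transplanted tumor received test compound or vehicle. Survival was recorded in each group, and the value is the treated-group measurement divided by that of the vehicle-treated control group.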

[1] = dose: 50.0 mg/kg/injection, schedule: Q01DX009 (ip), vehicle: saline with Tween-80
[2] = dose: 100.0 mg/kg/injection, schedule: Q01DX009 (ip), vehicle: saline with Tween-80
[3] = dose: 200.0 mg/kg/injection, schedule: Q01DX009 (ip), vehicle: saline with Tween-80
[4] = dose: 50.0 mg/kg/injection, schedule: Q01DX009 (ip), vehicle: saline
[5] = dose: 100.0 mg/kg/injection, schedule: Q01DX009 (ip), vehicle: saline
[6] = dose: 200.0 mg/kg/injection, schedule: Q01DX009 (ip), vehicle: saline
[7] = dose: 50.0 mg/kg/injection, schedule: Q01DX005 (ip), vehicle: saline with Tween-80
[8] = dose: 100.0 mg/kg/injection, schedule: Q01DX005 (ip), vehicle: saline with Tween-80
[9] = dose: 200.0 mg/kg/injection, schedule: Q01DX005 (ip), vehicle: saline with Tween-80
[10] = dose: 100.0 mg/kg/injection, schedule: Q04DX003 (ip), vehicle: saline with Tween-80
[11] = dose: 200.0 mg/kg/injection, schedule: Q04DX003 (ip), vehicle: saline with Tween-80
[12] = dose: 400.0 mg/kg/injection, schedule: Q04DX003 (ip), vehicle: saline with Tween-80
[13] = dose: 50.0 mg/kg/injection, schedule: Q01DX005 (ip), vehicle: Klucel (hydroxypropylcellulose) (HPC)
[14] = dose: 100.0 mg/kg/injection, schedule: Q01DX005 (ip), vehicle: Klucel (hydroxypropylcellulose) (HPC)
[15] = dose: 200.0 mg/kg/injection, schedule: Q01DX005 (ip), vehicle: Klucel (hydroxypropylcellulose) (HPC)
[16] = dose: 60.0 mg/kg/injection, schedule: Q01DX005 (ip), vehicle: saline with Tween-80
[17] = dose: 50.0 mg/kg/injection, schedule: Q01DX009 (ip), vehicle: Klucel (hydroxypropylcellulose) (HPC)
[18] = dose: 12.5 mg/kg/injection, schedule: Q01DX009 (ip), vehicle: saline
[19] = dose: 25.0 mg/kg/injection, schedule: Q01DX009 (ip), vehicle: saline

Measured: T/C

C[C@@H]1C[C@@H]2OC(=O)[C@]3(C)[C@H]2[C@@H](OC3(C)O)[C@]2(C)C(=O)C=C[C@@H]12 (stereo partly drawn)
inactive: dose: 4.25 mg/kg/injection, schedule: Q01DX009 (ip), vehicle: Klucel (hydroxypropylcellulose) (HPC) 104 % of control | dose: 8.5 mg/kg/injection, schedule: Q01DX009 (ip), vehicle: Klucel (hydroxypropylcellulose) (HPC) 102 % of control and 109 % of control | dose: 17.0 mg/kg/injection, schedule: Q01DX009 (ip), vehicle: Klucel (hydroxypropylcellulose) (HPC) 119 % of control and 120 % of control

OC(c1ccncc1)c1cc(Cl)ccc1Cl (stereo not drawn)
inactive: [1] 94 % of control | [2] 100 % of control | [3] 108 % of control

CC(C)N=Cc1ccccc1O.CC(C)N=Cc1ccccc1O.[Cu]
inactive: dose: 25.0 mg/kg/injection, schedule: Q04DX003 (ip), vehicle: saline with Tween-80 100 % of control | dose: 50.0 mg/kg/injection, schedule: Q04DX003 (ip), vehicle: saline with Tween-80 100 % of control

CC(=O)/C=C/N1CCOCC1
inactive: [4] 119 % of control | [5] 98 % of control | [6] 103 % of control

c1ccc2c(-c3nccc4ccccc34)nccc2c1
inactive: [7] 99 % of control | [8] 103 % of control | [9] 92 % of control

CC(C)(C)N1C(=O)[N+](C)(CCCCCC[N+]2(C)N=C([O-])N(C(C)(C)C)C2=O)N=C1[O-] (stereo not drawn)
inactive: [10] 95 % of control | [11] 100 % of control | [12] 108 % of control

[CH3][Ge]([CH3])([CH3])/[C](=[C](\c1ccccc1)[Ge]([CH3])([CH3])[CH3])c1ccccc1
inactive: [4] 106 % of control | [5] 92 % of control | [6] 93 % of control

COc1ccc(CC(C(=O)NN)S(=O)(=O)NC(C)(C)C)cc1OC (stereo not drawn)
inactive: dose: 100.0 mg/kg/injection, schedule: Q04DX003 (ip), vehicle: Klucel (hydroxypropylcellulose) (HPC) 98 % of control | dose: 200.0 mg/kg/injection, schedule: Q04DX003 (ip), vehicle: Klucel (hydroxypropylcellulose) (HPC) 98 % of control | dose: 400.0 mg/kg/injection, schedule: Q04DX003 (ip), vehicle: Klucel (hydroxypropylcellulose) (HPC) 95 % of control

CC(=O)ONC(=O)CSc1nn2cc(-c3ccccc3)nc2s1
inactive: [7] 103 % of control | [8] 97 % of control | [9] 95 % of control

CC(C)(C)c1cc(C(O)(C(F)(F)F)C(F)(F)F)c(Cl)c(C(O)(C(F)(F)F)C(F)(F)F)c1
inactive: [13] 94 % of control | [14] 90 % of control | [15] 92 % of control

CC(=O)OC1CC(O)CC2=CCC3C4CCC(C(C)(O)C(O)CC5COC(=O)C5C)C4(C)CCC3C21C (stereo not drawn)
inactive: dose: 4.0 mg/kg/injection, schedule: Q01DX005 (ip), vehicle: distilled water + Tween-80 96 % of control | dose: 8.0 mg/kg/injection, schedule: Q01DX005 (ip), vehicle: distilled water + Tween-80 95 % of control | dose: 16.0 mg/kg/injection, schedule: Q01DX005 (ip), vehicle: distilled water + Tween-80 96 % of control | dose: 32.0 mg/kg/injection, schedule: Q01DX005 (ip), vehicle: distilled water + Tween-80 91 % of control and 97 % of control | dose: 64.0 mg/kg/injection, schedule: Q01DX005 (ip), vehicle: distilled water + Tween-80 87 % of control and 94 % of control

COc1cc(/C=C2/Nc3ccc(Cl)cc3NC2=O)ccc1O
inactive: [16] 93 % of control | dose: 120.0 mg/kg/injection, schedule: Q01DX005 (ip), vehicle: saline with Tween-80 98 % of control | dose: 240.0 mg/kg/injection, schedule: Q01DX005 (ip), vehicle: saline with Tween-80 96 % of control

Cc1nc2c(cnn2C)c(=O)n1Cc1ccccc1
inactive: [13] 104 % of control | [14] 97 % of control | [15] 103 % of control

CC(=O)/C=C/c1ccc(O)cc1
inactive: [1] 110 % of control | [2] 98 % of control | [10] 105 % of control | [3] 100 % of control | [11] 113 % of control | [12] 105 % of control

CC(C)CCCC(C)C1CCC2C3CCC4N(CCCl)CCCC4(C)C3CCC12C (stereo not drawn)
inactive: dose: 25.0 mg/kg/injection, schedule: Q01DX001 (ip), vehicle: saline 100 % of control | dose: 50.0 mg/kg/injection, schedule: Q01DX001 (ip), vehicle: saline 99 % of control | dose: 100.0 mg/kg/injection, schedule: Q01DX001 (ip), vehicle: saline 94 % of control

COc1cc(/C=C2\N=C(c3cccc(C)c3)OC2=O)ccc1O
inactive: [1] 91 % of control | [2] 100 % of control | [3] 99 % of control

CC1=CCc2c(c(NS(=O)(=O)c3ccccc3)c3ccccc3c2NS(=O)(=O)c2ccccc2)C1
inactive: dose: 25.0 mg/kg/injection, schedule: Q01DX001 (ip), vehicle: saline with Tween-80 105 % of control | dose: 50.0 mg/kg/injection, schedule: Q01DX001 (ip), vehicle: saline with Tween-80 90 % of control | dose: 100.0 mg/kg/injection, schedule: Q01DX001 (ip), vehicle: saline with Tween-80 90 % of control

COn1nnc2ccc(Cl)cc21
inactive: [17] 99 % of control | dose: 100.0 mg/kg/injection, schedule: Q01DX009 (ip), vehicle: Klucel (hydroxypropylcellulose) (HPC) 100 % of control | dose: 200.0 mg/kg/injection, schedule: Q01DX009 (ip), vehicle: Klucel (hydroxypropylcellulose) (HPC) 100 % of control

CCCCCCCCCCN1CCOCCOCCN(CCCCCCCCCC)CCOCCOCC1
inactive: dose: 1.56 mg/kg/injection, schedule: Q01DX005 (ip), vehicle: saline with Tween-80 105 % of control | dose: 3.13 mg/kg/injection, schedule: Q01DX005 (ip), vehicle: saline with Tween-80 100 % of control | dose: 6.25 mg/kg/injection, schedule: Q01DX005 (ip), vehicle: saline with Tween-80 107 % of control | dose: 12.5 mg/kg/injection, schedule: Q01DX005 (ip), vehicle: saline with Tween-80 99 % of control

CC[As](CC)SC1CC(OC(=O)c2ccccc2)C(OC(=O)c2ccccc2)C(COC(=O)c2ccccc2)O1 (stereo not drawn)
inactive: [1] 100 % of control | [2] 105 % of control

CC(=O)OCc1c(Cl)nc2n1CCS2
inactive: dose: 25.0 mg/kg/injection, schedule: Q01DX001 (ip), vehicle: Klucel (hydroxypropylcellulose) (HPC) 103 % of control | dose: 50.0 mg/kg/injection, schedule: Q01DX001 (ip), vehicle: Klucel (hydroxypropylcellulose) (HPC) 96 % of control | dose: 100.0 mg/kg/injection, schedule: Q01DX001 (ip), vehicle: Klucel (hydroxypropylcellulose) (HPC) 102 % of control

Cc1nn(C(=O)c2cccnc2)c(-c2ccccc2)c1N=Nc1ccc(S(=O)(=O)Nc2ncccn2)cc1
inactive: [7] 89 % of control | [8] 88 % of control

CCCCCCCCCCCCCCCC[N+](C)(C)CCN
inactive: [18] 93 % of control | [19] 99 % of control | [4] 106 % of control

Cc1ccc(N)c(S)c1
inactive: dose: 12.5 mg/kg/injection, schedule: Q01DX009 (ip), vehicle: Klucel (hydroxypropylcellulose) (HPC) 98 % of control | dose: 25.0 mg/kg/injection, schedule: Q01DX009 (ip), vehicle: Klucel (hydroxypropylcellulose) (HPC) 120 % of control | [17] 117 % of control

CCCC(=O)Nc1nc2ccc([N+](=O)[O-])cc2s1
inactive: dose: 12.5 mg/kg/injection, schedule: Q01DX009 (ip), vehicle: saline with Tween-80 106 % of control | [18] 97 % of control | dose: 25.0 mg/kg/injection, schedule: Q01DX009 (ip), vehicle: saline with Tween-80 97 % of control | [19] 98 % of control | [1] 99 % of control and 123 % of control | [4] 98 % of control | [2] 110 % of control and 96 % of control | [5] 101 % of control | [3] 108 % of control

O=C(CNC(=O)Nc1ccc(Cl)c(Cl)c1)N/N=C/c1ccccc1F
inactive: dose: 3.75 mg/kg/injection, schedule: Q01DX005 (ip), vehicle: saline with Tween-80 104 % of control | dose: 7.5 mg/kg/injection, schedule: Q01DX005 (ip), vehicle: saline with Tween-80 102 % of control | dose: 15.0 mg/kg/injection, schedule: Q01DX005 (ip), vehicle: saline with Tween-80 102 % of control and 93 % of control | [16] 95 % of control

— PubChem BioAssay AID330 (DTP/NCI, 2004)
